Test results taken from patent publication US20020061902A1, “Treatment method” (SCHERING CORPORATION, priority 2000, published 2002).

Columns and labels:
[1] = system: rhinitis due to pollen allergy; settings: given over a two week period; patients with rhinitis due to pollen allergy; cited from earlier work
[2] = stability of free base versus acid addition salt; assay type: physicochemical; settings: free base vs acid addition salt
[3] = system: eosinophils / human umbilical endothelial cells (HUVECs); assay: TNFα-induced adhesion of 51Cr-labeled eosinophils to HUVECs; assay type: cell-based; settings: 10 μM desloratadine; TNFA; P<0.02
Excerpt: (§1) Eosinophils were isolated and purified (>99% pure and >98% viable) from the blood of patients with allergic rhinitis or allergic asthma; a 2-week washout preceded blood collection.

eosinophils = assay: PAF-induced eosinophil chemotaxis (blind well-chamber technique); assay type: cell-based, human; settings: 10 μM desloratadine; 1 μM PAF; eosinophils from patients with allergic rhinitis or allergic asthma; P<0.02
Excerpt: as §1

SMILES | ICAM-1 expression on nasal epithelial cells [1] | eosinophil counts [1] | rhinitis symptoms [1] | stability as the free base compared with an acid addition salt [2] | maximum attenuation of TNFα-induced eosinophil adhesion to HUVECs [3] | maximum attenuation of PAF-induced eosinophil chemotaxis (eosinophils)
CCOC(=O)N1CCC(=C2c3ccc(Cl)cc3CCc3cccnc32)CC1 [loratadine] | reduced | reduced | reduced |  |  | 
O=C(O)COCCN1CCN(C(c2ccccc2)c2ccc(Cl)cc2)CC1 (stereo not drawn) [cetirizine] | reduced | reduced | reduced |  |  | 
Clc1ccc2c(c1)CCc1cccnc1C2=C1CCNCC1 [Desloratadine, desloratadine] |  |  |  | more stable as the free base | 27%±5% | 36%±8%
